For experiment [1], the target named is human insulin receptor type B (IR(B)) (Homo sapiens, UniProt P06213). Kind of experiment: Insulin Receptor Binding Assay, scintillation proximity assay with cell membranes (Method D).
In experiment [2] the target is T1, Human macrophage mannose receptor 1 (MRC1) (Homo sapiens, UniProt P22897).
T1 sequence (P22897 19-1456): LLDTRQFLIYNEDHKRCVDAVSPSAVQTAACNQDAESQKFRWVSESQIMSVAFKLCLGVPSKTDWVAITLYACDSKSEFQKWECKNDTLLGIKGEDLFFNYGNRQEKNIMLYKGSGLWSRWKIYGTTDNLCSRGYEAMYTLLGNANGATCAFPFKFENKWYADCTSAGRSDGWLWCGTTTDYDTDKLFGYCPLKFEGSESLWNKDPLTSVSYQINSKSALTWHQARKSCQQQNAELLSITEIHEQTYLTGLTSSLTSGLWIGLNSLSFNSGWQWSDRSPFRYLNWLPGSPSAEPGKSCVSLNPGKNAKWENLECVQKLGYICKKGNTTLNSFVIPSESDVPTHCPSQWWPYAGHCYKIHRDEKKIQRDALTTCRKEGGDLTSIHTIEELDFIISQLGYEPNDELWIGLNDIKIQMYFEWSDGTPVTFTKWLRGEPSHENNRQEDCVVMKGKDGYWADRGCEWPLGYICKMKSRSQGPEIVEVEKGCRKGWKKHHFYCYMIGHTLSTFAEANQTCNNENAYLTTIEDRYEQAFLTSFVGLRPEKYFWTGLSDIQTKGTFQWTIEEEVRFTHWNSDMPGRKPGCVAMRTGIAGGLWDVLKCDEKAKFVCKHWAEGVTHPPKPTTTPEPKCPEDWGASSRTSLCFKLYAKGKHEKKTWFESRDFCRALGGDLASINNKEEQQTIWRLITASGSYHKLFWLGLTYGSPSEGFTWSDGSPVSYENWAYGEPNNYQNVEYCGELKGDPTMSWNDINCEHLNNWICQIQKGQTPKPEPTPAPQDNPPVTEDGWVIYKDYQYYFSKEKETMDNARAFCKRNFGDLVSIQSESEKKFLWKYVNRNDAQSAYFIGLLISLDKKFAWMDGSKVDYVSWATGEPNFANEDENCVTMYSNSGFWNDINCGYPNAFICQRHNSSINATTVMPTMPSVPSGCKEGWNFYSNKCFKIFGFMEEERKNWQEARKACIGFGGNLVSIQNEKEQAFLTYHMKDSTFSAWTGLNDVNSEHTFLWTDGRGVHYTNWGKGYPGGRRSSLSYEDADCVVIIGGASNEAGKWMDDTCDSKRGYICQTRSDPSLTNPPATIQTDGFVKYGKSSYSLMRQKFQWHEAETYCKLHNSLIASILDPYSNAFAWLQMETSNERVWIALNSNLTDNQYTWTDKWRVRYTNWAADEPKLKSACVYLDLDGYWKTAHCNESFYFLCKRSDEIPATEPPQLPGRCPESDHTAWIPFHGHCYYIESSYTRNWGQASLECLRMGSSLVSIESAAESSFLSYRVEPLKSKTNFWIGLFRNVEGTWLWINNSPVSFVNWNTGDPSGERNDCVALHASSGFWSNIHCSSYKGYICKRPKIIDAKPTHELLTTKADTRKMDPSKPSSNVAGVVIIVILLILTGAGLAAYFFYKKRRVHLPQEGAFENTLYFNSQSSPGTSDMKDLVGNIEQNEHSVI
Kind of experiment: MRC1 competition binding assay with Eu-labeled mannosylated-BSA (Methods E and F). The following applies: Method F: MRC1 assay in a 384-well plate; read-out: MRC1 Binding IP‡. The procedure:
Human macrophage mannose receptor 1 (MRC1) Binding Assays were performed as follows.
The competition binding assay for MRC1 utilized a ligand, mannosylated-BSA labeled with the DELFIA Eu-N1-ITC reagent, as reported in the literature. Assay was performed either in a 96-well plate with 100 μL well volume (Method E) or in a 384-well plate with 25 μL well volume (Method F). […] The antibody was incubated in the plate for 1 hr at room temperature with shaking. The plate was washed with wash buffer 3-5 times followed by addition of MRC1 (2 ng/μl final concentration) in PBS containing 1% stabilizer BSA. The plate was incubated at room temperature with gentle shaking for 1 hr. The plate was washed three times with wash buffer. The IOC molecules in 12.5 μL (or 50 μL depending on plate format) buffer at appropriate concentrations were added followed by 12.5 μL (or 50 μL) Eu-mannosylated-BSA (0.1 nM final concentration) in 50 mM Tris, pH 7.5 containing 100 mM NaCl, 5 mM CaCl2, 1 mM MgCl2 and 0.2% stabilizer BSA. The plate was incubated for 2 hrs at room temperature with shaking followed by washing three times with wash buffer. Perkin Elmer Eu-inducer reagent was added and incubated for 30 min at room temperature prior to detection of the Eu signal (Excitation=340 nm: Emission=615 nm).

The target of a further experiment is T2, human IR(B) (Homo sapiens, UniProt P06213).
T2 construct: expressed in transfected cells
T2 sequence (P06213 28-758 limits assumed): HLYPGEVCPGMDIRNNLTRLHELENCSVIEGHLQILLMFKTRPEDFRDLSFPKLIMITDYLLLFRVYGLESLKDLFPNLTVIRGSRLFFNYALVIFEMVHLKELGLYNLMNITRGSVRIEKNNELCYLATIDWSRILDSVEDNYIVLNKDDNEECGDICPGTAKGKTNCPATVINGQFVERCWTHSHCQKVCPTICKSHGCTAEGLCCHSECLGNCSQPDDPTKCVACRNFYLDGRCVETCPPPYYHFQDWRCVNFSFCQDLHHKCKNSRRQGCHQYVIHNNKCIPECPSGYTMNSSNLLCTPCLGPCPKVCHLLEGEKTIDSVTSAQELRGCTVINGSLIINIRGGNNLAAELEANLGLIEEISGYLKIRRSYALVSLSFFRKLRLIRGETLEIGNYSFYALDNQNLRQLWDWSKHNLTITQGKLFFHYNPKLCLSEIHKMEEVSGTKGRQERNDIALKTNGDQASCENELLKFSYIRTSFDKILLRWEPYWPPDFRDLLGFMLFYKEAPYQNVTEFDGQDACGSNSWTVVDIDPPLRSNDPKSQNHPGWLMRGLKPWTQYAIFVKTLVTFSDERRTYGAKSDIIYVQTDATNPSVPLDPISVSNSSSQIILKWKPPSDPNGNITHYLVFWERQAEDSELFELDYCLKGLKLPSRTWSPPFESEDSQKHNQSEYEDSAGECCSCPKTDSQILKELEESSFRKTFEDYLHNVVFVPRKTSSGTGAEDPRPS
T2 sequence (P06213 763-1382 partner limits assumed): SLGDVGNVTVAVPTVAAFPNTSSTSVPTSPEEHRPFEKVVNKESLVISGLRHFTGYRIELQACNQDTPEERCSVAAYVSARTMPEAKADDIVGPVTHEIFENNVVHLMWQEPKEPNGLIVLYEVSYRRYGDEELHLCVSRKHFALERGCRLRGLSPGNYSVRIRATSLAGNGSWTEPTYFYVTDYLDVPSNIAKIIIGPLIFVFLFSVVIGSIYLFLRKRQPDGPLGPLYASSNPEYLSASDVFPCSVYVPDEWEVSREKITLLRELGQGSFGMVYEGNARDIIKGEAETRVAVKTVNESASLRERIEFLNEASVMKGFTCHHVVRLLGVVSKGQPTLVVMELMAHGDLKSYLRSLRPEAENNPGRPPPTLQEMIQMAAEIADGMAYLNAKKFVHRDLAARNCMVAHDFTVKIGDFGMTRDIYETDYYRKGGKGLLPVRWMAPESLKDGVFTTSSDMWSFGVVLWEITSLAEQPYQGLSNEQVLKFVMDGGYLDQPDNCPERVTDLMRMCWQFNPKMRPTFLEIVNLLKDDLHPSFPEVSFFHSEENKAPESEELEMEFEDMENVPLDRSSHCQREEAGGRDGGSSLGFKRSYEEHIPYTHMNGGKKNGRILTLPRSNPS
Briefly: Insulin Receptor Phosphorylation Assay (MSD pIR assay; Methods A and B). Particulars: Method B: IR phosphorylation assay, 384-well with automated liquid dispense; CHO cells expressing human IR(B); read-out: IR Activation IP†. The format is cell-based. As to the method:
Insulin Receptor Phosphorylation Assays were performed as follows.
Cells were harvested and frozen in aliquots for use in the MSD pIR assay. Briefly, the frozen cells were plated in either 96-well (40,000 cells/well, Method A) or 384-well (10,000 cells/well, Method B) clear tissue culture plates and allowed to recover. IOC molecules at the appropriate concentrations were added and the cells incubated for 8 min at 37° C. The media was aspirated and chilled MSD cell lysis buffer was added as per MSD kit instructions. The cells were lysed on ice for 40 min and the lysate then mixed for 10 minutes at room temperature. The lysate was transferred to the MSD kit pIR detection plates. The remainder of the assay was carried out following the MSD kit recommended protocol.

The results in this text go back to patent US11041009B2, “Glucose responsive insulin comprising a tri-valent sugar cluster for treatment of diabetes” (Merck Sharp & Dohme Corp., priority 2017, dated 2021).

Structures are written as SMILES.

Chain of human insulin receptor type B (IR(B)) (P06213 28-758 limits assumed): as the sequence (P06213 28-758 limits assumed) above
Chain of human insulin receptor type B (IR(B)) (P06213 763-1382 partner limits assumed): as the sequence (P06213 763-1382 partner limits assumed) above

With `CC[C@H](C)[C@H](NC(=O)CN)C(=O)N[C@H](C(=O)N[C@@H](CCC(=O)O)C(=O)N[C@@H](CCC(N)=O)C(=O)N[C@H]1CSSC[C@@H]2NC(=O)[C@H]([C@@H](C)CC)NC(=O)[C@H](CO)NC(=O)[C@H]([C@@H](C)O)NC(=O)[C@H](CSSC[C@H](NC(=O)[C@H](CC(C)C)NC(=O)[C@H](Cc3c[nH]cn3)NC(=O)[C@H](CCC(N)=O)NC(=O)[C@H](CC(N)=O)NC(=O)[C@@H](NC(=O)[C@H](Cc3ccccc3)NC(=O)CCCCC(=O)N(CC(=O)NCCO[C@@H]3O[C@H](CO)[C@@H](O)[C@H](O)[C@H]3O)CC(=O)N(CCO[C@H]3O[C@H](CO)[C@@H](O)[C@H](O)[C@@H]3O)CCO[C@H]3O[C@H](CO)[C@@H](O)[C@H](O)[C@@H]3O)C(C)C)C(=O)NCC(=O)N[C@@H](CO)C(=O)N[C@@H](Cc3c[nH]cn3)C(=O)N[C@@H](CC(C)C)C(=O)N[C@@H](C(C)C)C(=O)N[C@@H](CCC(=O)O)C(=O)N[C@@H](C)C(=O)N[C@@H](CC(C)C)C(=O)N[C@@H](Cc3ccc(O)cc3)C(=O)N[C@@H](CC(C)C)C(=O)N[C@@H](C(C)C)C(=O)N[C@H](C(=O)NCC(=O)N[C@@H](CCC(=O)O)C(=O)N[C@@H](CCCNC(=N)N)C(=O)NCC(=O)N[C@@H](Cc3ccccc3)C(=O)N[C@@H](Cc3ccccc3)C(=O)N[C@@H](Cc3ccc(O)cc3)C(=O)N[C@H](C(=O)N3CCC[C@H]3C(=O)N[C@@H](CCCCNC(=O)CCCCC(=O)N(CC(=O)NCCO[C@@H]3O[C@H](CO)[C@@H](O)[C@H](O)[C@H]3O)CC(=O)N(CCO[C@H]3O[C@H](CO)[C@@H](O)[C@H](O)[C@@H]3O)CCO[C@H]3O[C@H](CO)[C@@H](O)[C@H](O)[C@@H]3O)C(=O)N[C@H](C(=O)O)[C@@H](C)O)[C@@H](C)O)CSSC[C@@H](C(=O)N[C@@H](CC(N)=O)C(=O)O)NC(=O)[C@H](Cc3ccc(O)cc3)NC(=O)[C@H](CC(N)=O)NC(=O)[C@H](CCC(=O)O)NC(=O)[C@H](CC(C)C)NC(=O)[C@H](CCC(N)=O)NC(=O)[C@H](Cc3ccc(O)cc3)NC(=O)[C@H](CC(C)C)NC(=O)[C@H](CO)NC2=O)NC1=O)C(C)C` [IOC-63], the IC50 came to 1.65 nM in experiment [1] and 70.2 nM in experiment [2]. On human IR(B), the EC50 was determined as 0.63 nM.
